From patent US10858360B2, “Tricyclic gyrase inhibitors” (priority 2011, dated 2020) come the findings set out here.

One experiment concerns E. coli ATCC 25922. The experiment can be described thus: MIC, E. coli ATCC 25922. The class given is cell-based. The following applies: for MIC: Escherichia coli, ATCC25922, E. coli.
In a further experiment the test system is S. aureus ATCC 13709. In words: MIC, S. aureus ATCC 13709 (Alamar Blue broth microdilution). The class given is cell-based. To be noted: for MIC: Staphylococcus aureus, ATCC13709, S. aureus.
[1] abbreviates: E. coli, Alamar Blue read after overnight incubation at 35° C.
Where [2] appears, read: S. aureus, Alamar Blue read after overnight incubation at 35° C.
The mark [3] stands for this setting: Alamar Blue read after overnight incubation at 35° C.

In brackets after ≈: the same amount, converted by molar mass. Where two headings read alike, the source gives them in different places.

For the compound `CNc1cc(F)cc2c1[nH]c1nc(Oc3cnc(C)nc3)nc(N3CCC(C)(N)CC3)c12` [4.135], the “MIC Ec” value against E. coli ATCC 25922 (setting [1]) came out at 1 mg/L (≈ 2.29 µM). The “MIC Sa” value in the experiment with S. aureus ATCC 13709 (setting [2]) was at most 0.5 mg/L.
The term MIC denotes the smallest concentration in the dilution series that meets the test's criterion for growth inhibition. As to `CNc1cc(F)cc2c1[nH]c1nc(Oc3cncnc3)nc(N3CC4CC4(N)C3)c12` (stereo not drawn) [4.005], the MIC against E. coli ATCC 25922 (setting [3]) and in the experiment with S. aureus ATCC 13709 (setting [3]) was at most 0.5 mg/L throughout.
On to `CNc1cc(F)cc2c1[nH]c1nc(Oc3cncnc3)nc(N3C[C@@H](N)C4(CC4)C3)c12` [4.006], for which the MIC was 1 mg/L (≈ 2.38 µM) in the experiment with E. coli ATCC 25922 (setting [3]) and at most 0.5 mg/L in the experiment with S. aureus ATCC 13709 (setting [3]).
For `CNc1cc(F)cc2c1[nH]c1nc(Oc3ccc[n+]([O-])c3)nc(N3CC4C[C@@H](N)C4C3)c12` (stereo partly drawn) [4.349], the minimal inhibitory concentration (MIC) was 1 mg/L (≈ 2.3 µM) in the experiment on E. coli ATCC 25922 (setting [3]) and at most 0.5 mg/L in the experiment with S. aureus ATCC 13709 (setting [3]).
Turning to `CNc1cc(F)cc2c1[nH]c1nc(Oc3cncc(C(N)=O)c3)nc(N3CC4CC(N)C4C3)c12` (stereo not drawn) [4.239], the “MIC Ec” value against E. coli ATCC 25922 (setting [1]) worked out at 8 mg/L (≈ 17.3 µM). The “MIC Sa” value in the experiment on S. aureus ATCC 13709 (setting [2]) was at most 0.5 mg/L.
For the compound `CNc1cccc2c1[nH]c1nc(Oc3cncnc3)nc(N3C[C@@H](N)C4(CC4)C3)c12` [3.46], the results for the minimum inhibitory concentration (MIC) against E. coli ATCC 25922 (setting [3]) and in the experiment with S. aureus ATCC 13709 (setting [3]) were 4 mg/L (≈ 9.94 µM) and 2 mg/L (≈ 4.97 µM), respectively.
With `CNc1cc(F)cc2c1[nH]c1nc(Oc3cnc(C(N)=O)nc3)nc(N3C[C@H](N)C4(CC4)C3)c12` [4.375], the minimal inhibitory concentration (MIC) against E. coli ATCC 25922 (setting [3]) was 4 mg/L (≈ 8.63 µM); against S. aureus ATCC 13709 (setting [3]), at most 0.5 mg/L.
The corresponding values for `CNc1cccc2c1[nH]c1nc(Sc3cnc4cccnc4c3)nc(N3CC4C(C3)C4(N)CO)c12` (stereo not drawn) [1.30] are above 64 mg/L and 16 mg/L (≈ 33 µM).
`CNc1cc(F)cc2c1[nH]c1nc(Oc3cnc4c(c3)ncn4C)nc(N3CCC(N)C3)c12` (stereo not drawn) [4.225]: the “MIC Ec” value in the experiment on E. coli ATCC 25922 (setting [1]) is 2 mg/L (≈ 4.47 µM). For the same compound, the “MIC Sa” value against S. aureus ATCC 13709 (setting [2]) was at most 0.5 mg/L.
As for `CNc1cccc2c1[nH]c1nc(Sc3cnc4cccnc4c3)nc(N3CCCCC(N)C3)c12` (stereo not drawn) [1.45], the minimal inhibitory concentration (MIC) amounted to 4 mg/L (≈ 8.5 µM) in the experiment with E. coli ATCC 25922 (setting [3]) and 1 mg/L (≈ 2.12 µM) against S. aureus ATCC 13709 (setting [3]).
As for `CNc1ncnc2c1[nH]c1nc(Oc3cnc(C)nc3)nc(N3CCC4(CC4N)C3)c12` (stereo not drawn) [7.09], the MIC against E. coli ATCC 25922 (setting [3]) is above 64 mg/L; with S. aureus ATCC 13709 (setting [3]), 8 mg/L (≈ 19.1 µM).
Take `CNc1cccc2c1[nH]c1nc(Oc3cncnc3)nc(N3CC(F)[C@@H](N)C3)c12` (stereo partly drawn) [3.63]: the MIC with E. coli ATCC 25922 (setting [3]) was 8 mg/L (≈ 20.3 µM); with S. aureus ATCC 13709 (setting [3]) it was at most 0.5 mg/L.
As to `CNc1cc(F)cc2c1[nH]c1nc(Oc3cnc4[nH]cnc4c3)nc(N3CC4C(N)C4C3)c12` (stereo not drawn) [4.311], the figures for the MIC in the experiment with E. coli ATCC 25922 (setting [3]) and in the experiment on S. aureus ATCC 13709 (setting [3]) were above 16 mg/L and 4 mg/L (≈ 8.98 µM), respectively.
On the same counts, the results for `CNc1cc(F)cc2c1[nH]c1nc(Oc3cncc(Cl)c3)nc(N3CC4C(N)C4C3)c12` (stereo not drawn) [4.272] are at most 0.5 mg/L and at most 0.5 mg/L.
For `COc1cccc2c1[nH]c1nc(Oc3cncnc3)nc(N3CCC(NC(C)=O)C3)c12` (stereo not drawn) [2.11], the “MIC Ec” value against E. coli ATCC 25922 (setting [1]) was above 64 mg/L. Further, in the experiment with S. aureus ATCC 13709 (setting [2]), the “MIC Sa” value turned out to be 4 mg/L (≈ 9.54 µM).
Take `CNc1cc(F)cc2c1[nH]c1nc(Oc3cnc(SC)nc3)nc(N3CC4C(N)C4C3)c12` (stereo not drawn) [4.193]: the MIC in the experiment with E. coli ATCC 25922 (setting [3]) and in the experiment on S. aureus ATCC 13709 (setting [3]) was at most 0.5 mg/L throughout.
Consider `CNc1cc(F)cc2c1[nH]c1nc(Oc3cncnc3)nc(N3CC4C(N)C4C3)c12` (stereo not drawn) [4.001], for which the “MIC Ec” value with E. coli ATCC 25922 (setting [1]) was at most 0.5 mg/L. The “MIC Sa” value against S. aureus ATCC 13709 (setting [2]) was at most 0.5 mg/L.
Consider `CNc1cccc2c1[nH]c1nc(Sc3cnc4cccnc4c3)nc(N3CCN(C(=O)C4CCCO4)CC3)c12` (stereo not drawn) [1.69], for which the minimum inhibitory concentration (MIC) in the experiment on E. coli ATCC 25922 (setting [3]) is 8 mg/L (≈ 14.8 µM); in the experiment with S. aureus ATCC 13709 (setting [3]) it was at most 0.5 mg/L.
`CNc1cc(Cl)cc2c1[nH]c1nc(Oc3cncnc3)nc(N3CCC4(CC4N)C3)c12` (stereo not drawn) [6.11]: the “MIC Ec” value against E. coli ATCC 25922 was at most 0.5 mg/L. Moreover, the “MIC Sa” value against S. aureus ATCC 13709 was at most 0.5 mg/L.
Regarding `CNc1cc(F)cc2c1[nH]c1nc(Oc3cnc(C)nc3)nc(N3CC4CC(N)C4C3)c12` (stereo not drawn) [4.110], the “MIC Ec” value with E. coli ATCC 25922 (setting [1]) was at most 0.5 mg/L. Moreover, the “MIC Sa” value against S. aureus ATCC 13709 (setting [2]) was at most 0.5 mg/L.
Regarding `CNc1cccc2c1[nH]c1nc(Sc3cnc4nccnc4c3)nc(N3CC4C(N)C4C3)c12` (stereo not drawn) [1.16], the MIC is 1 mg/L (≈ 2.2 µM) in the experiment on E. coli ATCC 25922 (setting [3]) and at most 0.5 mg/L in the experiment with S. aureus ATCC 13709 (setting [3]).
As to `CNc1cc(F)cc2c1[nH]c1nc(Oc3cncc(OC)c3)nc(N3CCC4CNC4C3)c12` (stereo not drawn) [4.166], the minimal inhibitory concentration (MIC) is 2 mg/L (≈ 4.45 µM) in the experiment with E. coli ATCC 25922 (setting [3]) and at most 0.5 mg/L in the experiment on S. aureus ATCC 13709 (setting [3]).
For `CNc1cc(F)cc2c1[nH]c1nc(Oc3ccc4c(c3)C(=O)NC4)nc(N3CCC4(CC4N)C3)c12` (stereo not drawn) [4.266], in the experiment on E. coli ATCC 25922 (setting [1]), the “MIC Ec” value amounted to 1 mg/L (≈ 2.11 µM). Moreover, in the experiment on S. aureus ATCC 13709 (setting [2]), the “MIC Sa” value was at most 0.5 mg/L.
In the case of `CNc1cc(F)cc2c1[nH]c1nc(Oc3cnc(C4CC4)nc3)nc(N3CC4CCC(CN)C4C3)c12` (stereo not drawn) [4.253], the minimal inhibitory concentration (MIC) against E. coli ATCC 25922 (setting [3]) and with S. aureus ATCC 13709 (setting [3]) was at most 0.5 mg/L in each case.
As to `CNc1cc(F)cc2c1[nH]c1nc(Oc3cnc(N)nc3)nc(N3CC4CNC4C3)c12` (stereo not drawn) [4.178], the MIC against E. coli ATCC 25922 (setting [3]) was 8 mg/L (≈ 19 µM); against S. aureus ATCC 13709 (setting [3]) it was at most 0.5 mg/L.
Turning to `CNc1cccc2c1[nH]c1nc(Oc3cncc(C#N)c3)nc(N3CCC4(CC4N)C3)c12` (stereo not drawn) [3.40], the minimum inhibitory concentration (MIC) is 1 mg/L (≈ 2.34 µM) in the experiment on E. coli ATCC 25922 (setting [3]) and at most 0.5 mg/L in the experiment with S. aureus ATCC 13709 (setting [3]).
As to `CNc1cc(F)cc2c1[nH]c1nc(Oc3cnc(C4CC4)nc3)nc(N3CC4CCNC3C4)c12` (stereo not drawn) [4.248], the MIC in the experiment with E. coli ATCC 25922 (setting [3]) and in the experiment on S. aureus ATCC 13709 (setting [3]) was at most 0.5 mg/L throughout.
